For orientation: MIC means the lowest concentration that inhibits growth of the organism. By IC50 is commonly meant the midpoint of a concentration-inhibition curve. Read a low IC50 as higher potency.

Values after ≈ are worked out from the molar mass of the structure shown.

The subject of assay [1] is Enterobacter cloacae. Briefly: Synergistic antibacterial activity against carbapenem-resistant Enterobacter cloacae D01 mcr-1 negative isolate in presence of colistin by checkerboard assay. It counts as functional.
The test system of assay [2] is Escherichia coli. Briefly: Antibacterial activity against ESBLs positive Escherichia coli ATCC 35218 by agar method. It counts as functional.
Assay [3] has as its system Enterococcus faecalis. Briefly: Antibacterial activity against Vancomycin-sensitive Enterococcus faecalis ATCC 29212 by agar method. It is filed as functional.
Assay [4] has as its system Staphylococcus epidermidis. In words: Antibacterial activity against methicillin-sensitive Staphylococcus epidermidis ATCC 12228 by agar method. It is filed as functional.
Assay [5] deals with Escherichia coli. In words: Synergistic antibacterial activity against carbapenem-resistant Escherichia coli 08-85 mcr-1 positive isolate assessed as fractional inhibitory concentration index in presence of colistin by checkerboard assay. It is filed as functional.
Assay [6] deals with Enterococcus faecalis. Briefly: Antibacterial activity against vancomycin-resistant Enterococcus faecalis ATCC 51299 by agar method. It is filed as functional.
The next assay deals with Acinetobacter baumannii. Briefly: Antibacterial activity against carbapenem-resistant Acinetobacter baumannii 16-33 by agar method. It counts as functional.
Assay [7] has as its system Staphylococcus aureus. Briefly: Antibacterial activity against methicillin-sensitive Staphylococcus aureus ATCC 29213 by agar method. It counts as functional.
Assay [8] deals with Escherichia coli. In words: Synergistic antibacterial activity against carbapenem-resistant Escherichia coli 08-85 mcr-1 positive isolate in presence of colistin by checkerboard assay. It counts as functional.
Assay [9] has as its system Staphylococcus aureus. Briefly: Antibacterial activity against methicillin-resistant Staphylococcus aureus ATCC 33591 by agar method. It is filed as functional.
Assay [10] has as its system Enterobacter cloacae. Briefly: Synergistic antibacterial activity against carbapenem-resistant Enterobacter cloacae D01 mcr-1 negative isolate assessed as fractional inhibitory concentration index in presence of colistin by checkerboard assay. It is filed as functional.
The test system of assay [11] is Escherichia coli. Briefly: Antibacterial activity against carbapenem-resistant Escherichia coli 08-85 mcr-1 positive isolate by checkerboard assay. It counts as functional.
The subject of assay [12] is Escherichia coli. In words: Antibacterial activity against NDM-1 positive Escherichia coli ATCC 2469 by agar method. It is filed as functional.
For assay [13], the system named is Escherichia coli. In words: Antibacterial activity against ESBLs negative Escherichia coli ATCC 25922 by agar method. It is filed as functional.
Assay [14] deals with Enterobacter cloacae. Briefly: Antibacterial activity against carbapenem-resistant Enterobacter cloacae D01 mcr-1 negative isolate by checkerboard assay. It counts as functional.
The subject of assay [15] is Staphylococcus epidermidis. Briefly: Antibacterial activity against methicillin-resistant Staphylococcus epidermidis 16-5 by agar method. It counts as functional.
The subject of another assay is A549. In words: Cytotoxicity against human A549 cells. It counts as cell-based.
Assay [16] deals with Staphylococcus epidermidis. In words: Potency index, ratio of Levofloxacin MIC to test compound MIC for antibacterial activity against methicillin-resistant Staphylococcus epidermidis […] 16-5. It is filed as functional.

Consider `O=C(/C=C/c1ccccn1)c1ccc2ccccc2c1`, for which the minimum inhibitory concentration (MIC) with Enterobacter cloacae [1] is 16 µg/mL; with Escherichia coli [2], more than 128 µg/mL; against Enterococcus faecalis [3], 8 µg/mL (≈ 30.9 µM); in assay [4] it was 1 µg/mL (≈ 3.86 µM); in the assay on Enterococcus faecalis [6] it was 8 µg/mL (≈ 30.9 µM); in the assay on Acinetobacter baumannii it was more than 128 µg/mL. Besides, the MIC with Staphylococcus aureus [7] was 1 µg/mL (≈ 3.86 µM); with Escherichia coli [8], 128 µg/mL; in the assay with Staphylococcus aureus [9], 1 µg/mL (≈ 3.86 µM); in the assay with Escherichia coli [11], 1020 µg/mL; with Escherichia coli [12], more than 128 µg/mL; with Escherichia coli [13] it was more than 128 µg/mL. The MIC amounted to 1020 µg/mL in the assay with Enterobacter cloacae [14] and 2 µg/mL (≈ 7.71 µM) in assay [15]. Further, the “fractional inhibitory concentration index (FICI)” value with Escherichia coli [5] is listed as 0.375; with Enterobacter cloacae [10], 0.023.
Regarding `O=C(/C=C/c1ccc2c(C(F)(F)F)cccc2n1)c1cccnc1`, the MIC is more than 128 µg/mL in the assay with Escherichia coli [2]; 32 µg/mL (≈ 97.5 µM) against Enterococcus faecalis [3]; 2 µg/mL (≈ 6.09 µM) in assay [4]; 32 µg/mL (≈ 97.5 µM) against Enterococcus faecalis [6]; 128 µg/mL (≈ 390 µM) against Acinetobacter baumannii; 2 µg/mL (≈ 6.09 µM) in the assay with Staphylococcus aureus [7]. Besides, the MIC is 2 µg/mL (≈ 6.09 µM) in the assay on Staphylococcus aureus [9], more than 128 µg/mL with Escherichia coli [12], more than 128 µg/mL in the assay with Escherichia coli [13] and 2 µg/mL (≈ 6.09 µM) in assay [15]. Further, in the assay on A549, the IC50 was more than 50 µM. In [16], the Ratio was found to be 2.
Take `O=C(/C=C/c1ccc2ccccc2n1)c1ccccn1`: the minimal inhibitory concentration (MIC) in the assay on Enterobacter cloacae [1] is 4 µg/mL; in the assay with Escherichia coli [2], more than 32 µg/mL; against Enterococcus faecalis [3], 4 µg/mL (≈ 15.4 µM); in assay [4], 1 µg/mL (≈ 3.84 µM); against Enterococcus faecalis [6], 4 µg/mL (≈ 15.4 µM); in the assay with Acinetobacter baumannii, more than 32 µg/mL. In addition, the MIC was 2 µg/mL (≈ 7.68 µM) in the assay with Staphylococcus aureus [7]; 32 µg/mL in the assay on Escherichia coli [8]; 1 µg/mL (≈ 3.84 µM) in the assay on Staphylococcus aureus [9]; 1020 µg/mL in the assay on Escherichia coli [11]; more than 32 µg/mL with Escherichia coli [12]; more than 32 µg/mL against Escherichia coli [13]. Moreover, the MIC is 1020 µg/mL in the assay on Enterobacter cloacae [14] and 1 µg/mL (≈ 3.84 µM) in [15]. For the same compound, the “fractional inhibitory concentration index (FICI)” value came to 0.281 in the assay with Escherichia coli [5] and 0.012 in the assay with Enterobacter cloacae [10]. The compound also came in with an IC50 in the assay with A549 of 18.5 µM. Besides, the Ratio in assay [16] was found to be 2.
On to `O=C(/C=C/c1ccc2ccc(C(F)(F)F)cc2n1)c1ccncc1` [PFK-158], for which the MIC in the assay with Enterobacter cloacae [1] is 0.5 µg/mL; with Escherichia coli [2] it was more than 32 µg/mL; in the assay with Enterococcus faecalis [3] it was 4 µg/mL (≈ 12.2 µM); in assay [4], 1 µg/mL (≈ 3.05 µM); against Enterococcus faecalis [6], 4 µg/mL (≈ 12.2 µM); against Acinetobacter baumannii, more than 32 µg/mL. Besides, the minimal inhibitory concentration (MIC) against Staphylococcus aureus [7] was 2 µg/mL (≈ 6.09 µM); in the assay on Escherichia coli [8] it was 2 µg/mL; against Staphylococcus aureus [9], 2 µg/mL (≈ 6.09 µM); with Escherichia coli [11] it was 1020 µg/mL; against Escherichia coli [12] it was more than 32 µg/mL; against Escherichia coli [13], more than 32 µg/mL. Besides, the MIC in the assay on Enterobacter cloacae [14] was determined as 1020 µg/mL; in [15], 2 µg/mL (≈ 6.09 µM). The “fractional inhibitory concentration index (FICI)” value with Escherichia coli [5] came out at 0.252; in the assay on Enterobacter cloacae [10] it was 0.008. In addition, in the assay with A549, the midpoint of inhibition, the IC50, lay at 15 µM. In addition, the Ratio in assay [16] is 2.
As to `O=C(/C=C/c1ccc2ccccc2n1)c1ccccc1`, the MIC was more than 128 µg/mL against Escherichia coli [2]; 128 µg/mL (≈ 494 µM) with Enterococcus faecalis [3]; 2 µg/mL (≈ 7.71 µM) in assay [4]; 128 µg/mL (≈ 494 µM) with Enterococcus faecalis [6]; more than 128 µg/mL with Acinetobacter baumannii; 2 µg/mL (≈ 7.71 µM) in the assay with Staphylococcus aureus [7]. In addition, the MIC against Staphylococcus aureus [9] was 2 µg/mL (≈ 7.71 µM); against Escherichia coli [12] it was more than 128 µg/mL; against Escherichia coli [13], more than 128 µg/mL; in [15], 4 µg/mL (≈ 15.4 µM). In [16], the Ratio is listed as 2.
As to `O=C(/C=C/c1ccc2ccccc2n1)c1cccnc1`, the MIC in the assay with Enterobacter cloacae [1] is 64 µg/mL; against Escherichia coli [2] it was more than 32 µg/mL; with Enterococcus faecalis [3], 2 µg/mL (≈ 7.68 µM); in [4], 2 µg/mL (≈ 7.68 µM); with Enterococcus faecalis [6] it was 8 µg/mL (≈ 30.7 µM); in the assay on Acinetobacter baumannii, more than 32 µg/mL. Further, the MIC was 2 µg/mL (≈ 7.68 µM) in the assay with Staphylococcus aureus [7]; 64 µg/mL with Escherichia coli [8]; 2 µg/mL (≈ 7.68 µM) in the assay on Staphylococcus aureus [9]; 1020 µg/mL in the assay on Escherichia coli [11]; more than 32 µg/mL against Escherichia coli [12]; more than 32 µg/mL in the assay with Escherichia coli [13]. The results for the MIC (in the assay with Enterobacter cloacae [14]; in [15]) were 1020 µg/mL and 4 µg/mL (≈ 15.4 µM), respectively. Moreover, the entries for the “fractional inhibitory concentration index (FICI)” value in the assay on Escherichia coli [5] and with Enterobacter cloacae [10] were 0.313 and 0.07, respectively. The IC50 in the assay with A549 is 21.1 µM. Moreover, the Ratio in assay [16] stood at 2.

The values above are taken from ChEMBL document CHEMBL4814028, “Design, synthesis, and antibacterial evaluation of PFK-158 derivatives as potent agents against drug-resistant bacteria” (Bioorg Med Chem Lett, 2021).
